Marks after values point to notes of the source that are not given here. *1 amine or outer side, *2 acyl side, *3 side chain or, on linkers, in order; H or OH if unused. Where a SMILES comes first, the peptide text is derived from it. [ ]: non-standard residue; d: D form. The star is where a group is joined. NMePhe(3-Me,β,β-Me2) = CN[C@H](C(=O)O)C(C)(C)c1cccc(C)c1; X1 = C/C(=C\[C@H](C(C)C)N(C)[*:1])C(=O)[*:2]; Tle = CC(C)(C)[C@H](N)C(=O)O; NHBn = c1ccc(CN*)cc1
Columns and labels:
[1] = system: bovine microtubule-associated protein (MAP)-rich tubulin; format: biochemical
Method in brief: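 MAP-rich bovine tubulin at 1.5 mg/ml final was dissolved in cold PEM buffer (80 mM Na-PIPES pH 6.9, 1 mM MgCl2, 1 mM EGTA) with 1 mM GTP, then centrifuged at 12,000×g for 10 min at 4° C. Aliquots of 100 μl were added quickly to a low-volume 96-well plate holding duplicate 10 μl compound samples. Absorbance at 340 nm was read each minute for 60 min at 24° C.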

KB cells = assay: cells; format: cell-based; conditions: for IC50: 3 days, SRB
Method: (§1) Cell Survival Assay: Standard Pharmacological Test Procedure. […] Compounds are incubated with cells for 3 days.

KB85 = assay: cells; format: cell-based; conditions: for IC50: 3 days, SRB
Method: as §1

KBV1 = assay: cells; format: cell-based; conditions: for IC50: 3 days, SRB; for inhibition at 3 µM: KB-V1, 3000 nM
Method: as §1

## C/C(=C\[C@H](C(C)C)N(C)C(=O)[C@@H](NC(=O)[C@@H](N(C)C)C(C)(C)c1ccccc1)C(C)(C)C)C(=O)N1CCN(Cc2ccccc2)CC1 [Example 15, N,β,β,β-Tetramethyl-L-phenylalanyl-N^1[(1S,2E)-4-(4-benzylpiperazin-1-yl)-1-isopropyl-3-methyl-4-oxobut-2-enyl]-N^1,3-dimethyl-L-valinamide]
[1]
  Tubulin Polym. % inhibition at 0.3 uM: 77%
KB cells
  IC50: 7.2 nM
KB85
  IC50: 18 nM
KBV1
  IC50: 354 nM

## N,β,β-trimethyl-L-phenylalanyl-N^1-{(1S,2E)-4-[(2S)-2-(2-phenethoxycarbonyl)pyrrolidin-1-yl]-1-isopropyl-3-methyl-4-oxobut-2-enyl}-N^1,3-dimethyl-L-valinamid [Example 37]
[1]
  Tubulin Polym. % inhibition at 0.3 uM: 86%
KB cells
  IC50: 6.4 nM
KB85
  IC50: 21 nM
KBV1
  IC50: 1640 nM

## CN[C@H](C(=O)N[C@H](C(=O)N(C)[C@H](/C=C1/C(=O)NC(=O)N1C)C(C)C)C(C)(C)C)C(C)(C)c1ccccc1 [Example 89, N,β,β-trimethyl-L-phenylalanyl-N^1,3-dimethyl-N^1-{(1S)-2-methyl-1-[(Z)-(3-methyl-2,5-dioxoimidazolidin-4-ylidene)methyl]propyl}-L-valinamide]
[1]
  Tubulin Polym. % inhibition at 0.3 uM: 95%
KB cells; Homo sapiens, KB, 72 h
  IC50: 5.1 nM
KB85; 72 h
  IC50: 9.9 nM
KBV1; Homo sapiens, KB-V1, 72 h
  IC50: 230 nM

## CN[C@H](C(=O)N[C@H](C(=O)N(C)[C@H](/C=C(\C)C(=O)N1CCC[C@H]1C(=O)O)C(C)C)C(C)(C)C)C(C)(C)c1ccccc1 [Example 36, N,β,β-trimethyl-L-phenylalanyl-N^1-{(1S,2E)-4-[(2S)-2-carboxypyrrolidin-1-yl]-1-isopropyl-3-methyl-4-oxobut-2-enyl}-N^1,3-dimethyl-L-valinamide]
[1]
  Tubulin Polym. % inhibition at 0.3 uM: 97%
KB cells; Homo sapiens, KB, 72 h
  IC50: 62 nM
KB85; 72 h
  IC50: 205 nM
KBV1; Homo sapiens
  inhibition at 3 µM: 0%

## CN[C@H](C(=O)N[C@H](C(=O)N(C)[C@H](/C=C/S(=O)(=O)O)C(C)C)C(C)(C)C)C(C)(C)c1ccccc1 [Example 64, N,β,β-trimethyl-L-phenylalanyl-N^1-[(1S,2E)-1-isopropyl-3-sulfoprop-2-enyl]-N^1,3-dimethyl-L-valinamide]
[1]
  Tubulin Polym. % inhibition at 0.3 uM: 86%
KB cells; Homo sapiens, 72 h, 3000 nM
  inhibition at 3 µM: 2%
KB85; 3000 nM
  inhibition at 3 µM: 1%
KBV1; Homo sapiens
  inhibition at 3 µM: 0%

## CN[C@H](C(=O)N[C@H](C(=O)N(C)[C@H](/C=C(\C)C(=O)N1CCC[C@H]1[C@H](OC)[C@@H](C)C(=O)N1C(=O)O[C@@H](c2ccccc2)[C@H]1C)C(C)C)C(C)(C)C)C(C)(C)C1CCCCC1 [Example 51, 3-cyclohexyl-N-methyl-L-valyl-N^1-[(1S,2E)-1-isopropyl-4-((2S)-2-{(1R,2R)-1-meyhoxy-2-methyl-3-[(4R,5S)-4-methyl-2-oxo-5-phenyl-1,3-oxazolidin-3-yl]-3-oxopropyl}pyrrolidin-1-yl)-3-methyl-4-oxobut-2-enyl]-N^1,3-dimethyl-L-valinamide]
[1]
  Tubulin Polym. % inhibition at 0.3 uM: 82%
KB cells
  IC50: 22 nM
KB85
  IC50: 61 nM
KBV1
  IC50: 1770 nM

## CN[C@H](C(=O)N[C@H](C(=O)N(C)[C@H](/C=C(\C)C(=O)N1CCOCC1)C(C)C)C(C)(C)C)C(C)(C)c1cccc(C)c1 [Example 1, N,β,β,3-Tetramethyl-L-phenylalanyl-N^1-[(1S,2E)-1-isopropyl-3-methyl-4-morpholin-4-yl-4-oxobut-2-enyl]-N^1,3-dimethyl-L-valinamide]
[1]
  Tubulin Polym. % inhibition at 0.3 uM: 79%
KB cells; Homo sapiens, KB, 72 h
  IC50: 19.5 nM
KB85; 72 h
  IC50: 56 nM
KBV1; Homo sapiens, KB-V1, 72 h
  IC50: 1510 nM

## CN[C@H](C(=O)N[C@H](C(=O)N(C)[C@H](/C=C(\C)S(=O)(=O)O)C(C)C)C(C)(C)C)C(C)(C)c1ccccc1 [Example 66, N,β,β-trimethyl-L-phenylalanyl-N^1-[(1S,2E)-1-isopropyl-3-sulfobut-2-enyl] N^1,3-dimethyl-L-valinamide]
[1]
  Tubulin Polym. % inhibition at 0.3 uM: 91%
KB cells; 3000 nM
  KB % inhibition @ 3000 nM: 25%
KB85; 3000 nM
  KB85 % inhibition @ 3000 nM: 0%
KBV1; 3000 nM
  KBV1 % inhibition @ 3000 nM: 0%

## CN[C@H](C(=O)N[C@H](C(=O)N(C)[C@H](/C=C(\C)C(=O)N1CCN(Cc2ccccc2)CC1)C(C)C)C(C)(C)C)C(C)(C)c1ccccc1 [Example 39, N,β,β-trimethyl-L-phenylalanyl-N^1-[(1S,2E)-4-(4-benzylpiperazin-1-yl)-1-isopropyl-3-methyl-4-oxobut-2-enyl]-N^1,3-dimethyl-L-valinamide]
[1]
  Tubulin Polym. % inhibition at 0.3 uM: 29%
KB cells; Homo sapiens, KB, 72 h
  IC50: 15 nM
KB85; 72 h
  IC50: 22 nM
KBV1; Homo sapiens, KB-V1, 72 h
  IC50: 366 nM

## CN[C@H](C(=O)N[C@H](C(=O)N(C)[C@H](/C=C(\C)C(=O)N1CCC[C@@H]1C(=O)N1CCC[C@@H]1C(=O)NCc1ccccc1)C(C)C)C(C)(C)C)C(C)(C)c1cccc(C)c1.O=C(O)C(F)(F)F [Example 9, 1-{(2E,4S)-2,5-Dimethyl-4-[methyl(N,β,β,3-tetramethyl-L-phenylalanyl-3-methyl-L-valyl)amino]hex-2-enoyl}-D-prolyl-N-benzyl-D-prolinamide trifluoroacetic acid salt] (H-[NMePhe(3-Me,β,β-Me2)][Tle][X1][dP][dP]-NHBn)
[1]
  Tubulin Polym. % inhibition at 0.3 uM: 56%
KB cells; Homo sapiens, KB, 72 h
  IC50: 1.4 nM
KB85; 72 h
  IC50: 23 nM
KBV1; Homo sapiens
  inhibition at 3 µM: 21%

## CN[C@H](C(=O)N[C@H](C(=O)N(C)[C@H](/C=C(\C)[C@H](O)c1ccccc1)C(C)C)C(C)(C)C)C(C)(C)c1ccccc1 [Example 76, N,β,β-trimethyl-L-phenylalanyl-N-1-[(1S,2E,4S)-4-hydroxy-1-isopropyl-3-methyl-4-phenylbut-2-enyl}-N-1,3-dimethyl-L-valinamide]
[1]; 0.5 uM
  Tubulin Polym. % inhibition at 0.5 uM: 63*** %
KB cells
  IC50: 16 nM
KB85
  IC50: 22 nM
KBV1
  IC50: 190 nM

## CN[C@H](C(=O)N[C@H](C(=O)N(C)[C@H](/C=C(\C)C(=O)N1CCCC[C@H]1C(=O)OC)C(C)C)C(C)(C)C)C(C)(C)c1ccccc1 [Example 49, N,β,β-trimethyl-L-phenylalanyl-N^1-{(1S,2E)-1-isopropyl-4-[(2S)-2-(methoxycarbonyl)piperidin-1-yl]-3-methyl-4-oxobut-2-enyl}-N^1,3-dimethyl-L-valinamide]
[1]
  Tubulin Polym. % inhibition at 0.3 uM: 62(2) %
KB cells; Homo sapiens, KB, 72 h
  IC50: 5.2 nM
KB85; 72 h
  IC50: 17 nM
KBV1; Homo sapiens, KB-V1, 72 h
  IC50: 150 nM

## CN[C@H](C(=O)N[C@H](C(=O)N(C)[C@H](/C=C(/C)S(=O)(=O)O)C(C)C)C(C)(C)C)C(C)(C)c1ccccc1 [Example 67, N,β,β-trimethyl-L-phenylalanyl-N^1-[(1S,2Z)-1-isopropyl-3-sulfobut-2-enyl]-N^1,3-dimethyl-L-valinamide]
[1]
  Tubulin Polym. % inhibition at 0.3 uM: 21%
KB cells; Homo sapiens, 72 h, 3000 nM
  inhibition at 3 µM: 0%
KB85; 3000 nM
  inhibition at 3 µM: 0%
KBV1; Homo sapiens
  inhibition at 3 µM: 0%

## CN[C@H](C(=O)N[C@H](C(=O)N(C)[C@H](/C=C(\C)C(O)c1ccccc1)C(C)C)C(C)(C)C)C(C)(C)c1ccccc1 (stereo partly drawn) [Example 74, N,β,β-trimethyl-L-phenylalanyl-N-1-[(1S,2E)-4-hydroxy-1-isopropyl-3-methyl-4-phenylbut-2-enyl}-N-1,3-dimethyl-L-valinamide]
[1]
  Tubulin Polym. % inhibition at 0.3 uM: 73%
KB cells
  IC50: 19 nM
KB85
  IC50: 54 nM
KBV1
  IC50: 466 nM

## CN[C@H](C(=O)N[C@H](C(=O)N(C)[C@H](/C=C(\C)C(=O)N1CCC[C@H]1[C@H](OC)[C@@H](C)C(=O)N[C@@H](Cc1ccccc1)c1nccs1)C(C)C)C(C)(C)C)C(C)(C)C1CCCCC1 [Example 44, 3-cyclohexyl-N-methyl-L-valyl-N^1-{(1S,2E)-1-isopropyl-4-[(2S)-2-((1R,2R)-1methoxy-2-methyl-3-oxo-3-{[(1S)-2-phenyl-1-(1,3-thiazol-2-yl)ethyl]amino}propyl)pyrrolidin-1-yl]-3-methyl-4-oxobut-2-enyl}-N^1,3-dimethyl-L-valinamide]
[1]
  Tubulin Polym. % inhibition at 0.3 uM: 83%
KB cells; Homo sapiens, KB, 72 h
  IC50: 1.5 nM
KB85; 72 h
  IC50: 6.2 nM
KBV1; Homo sapiens, KB-V1, 72 h
  IC50: 475 nM

## CN[C@H](C(=O)N[C@H](C(=O)N(C)[C@H](/C=C(\C)C(=O)N1CCOCC1)C(C)C)C(C)(C)C)C(C)(C)c1cc(C)cc(C)c1 [Example 3, N,β,β,3,5-Pentamethyl-L-phenylalanyl-N^1-[(1S,2E)-1-isopropyl-3-methyl-4-morpholin-4-yl-4-oxobut-2-enyl]-N^1,3-dimethyl-L-valinamide]
[1]
  Tubulin Polym. % inhibition at 0.3 uM: 51%
KB cells; Homo sapiens, KB, 72 h
  IC50: 70 nM
KB85; 72 h
  IC50: 176 nM
KBV1; Homo sapiens, KB-V1, 72 h
  IC50: 1760 nM

## CCOS(=O)(=O)/C=C/[C@H](C(C)C)N(C)C(=O)[C@@H](NC(=O)[C@@H](NC)C(C)(C)c1ccccc1)C(C)(C)C [Example 63, N,β,β-trimethyl-L-phenylalanyl-N^1-[(1S,2E)-3-(ethoxysulfonyl)-1-isopropylprop-2-enyl]-N^1,3-dimethyl-L-valinamide]
[1]
  Tubulin Polym. % inhibition at 0.3 uM: 42%
KB cells; Homo sapiens, 72 h, 3000 nM
  inhibition at 3 µM: 1%
KB85; 3000 nM
  inhibition at 3 µM: 0%
KBV1; Homo sapiens
  inhibition at 3 µM: 0%

## CN[C@H](C(=O)N[C@H](C(=O)N(C)[C@H](/C=C(\C)C(=O)N1CCC[C@@H]1C(=O)OC)C(C)C)C(C)(C)C)C(C)(C)c1ccccc1 [Example 41, N,β,β-trimethyl-L-phenylalanyl-N^1-{(1S,2E)-4-[(2R)-2-(methoxycarbonyl)pyrrolidin-1-yl]-1-isopropyl-3-methyl-4-oxobut-2-enyl}-N^1,3-dimethyl-L-valinamide]
[1]
  Tubulin Polym. % inhibition at 0.3 uM: 96%
KB cells; Homo sapiens, KB, 72 h
  IC50: 16 nM
KB85; 72 h
  IC50: 51 nM
KBV1; Homo sapiens, KB-V1, 72 h
  IC50: 1100 nM

## CN[C@H](C(=O)N[C@H](C(=O)N(C)[C@H](/C=C(\C)C(O)c1nccs1)C(C)C)C(C)(C)C)C(C)(C)c1ccccc1 (stereo partly drawn) [Example 77, N,β,β-trimethyl-L-phenylalanyl-N-1-[(1S,2E)-4-hydroxy-1-isopropyl-3-methyl-4-(1,3-thiazol-2-yl)but-2-enyl]-N-1-,3-dimethyl-L-valinamide]
[1]
  Tubulin Polym. % inhibition at 0.3 uM: 97%
KB cells
  IC50: 13 nM
KB85
  IC50: 19 nM
KBV1
  IC50: 364 nM

Source: patent US7390910B2, “Compounds for treating tumors” (priority 2003, dated 2008)
